Assay results taken from patent US20260077051A1, “COMPOUNDS FOR THE DEGRADATION OF EGFR KINASE” (BeOne Medicines I GmbH, priority 2023, published 2026).

Columns and labels:
[1] = biological target: T1, EGFR-L858R/C797S (H1975-clone #8 cells) (Homo sapiens, UniProt P00533, C797S/L858R); test: EGFR degradation in H1975-clone#8 (L858R/C797S) cells (HTRF assay); type: cell-based; settings: 16 h treatment; for DC50: IC50(DC50) of EGFR degradation; for Dmax: maximum percentage of inhibition (degradation)
T1 construct: expressed in transfected cells; host or cells: H1975 (lentiviral transduction, endogenous EGFR knocked out, single clone #8)
Method: H1975-clone #8 (L858R/C797S): EGFR-L858R/C797S were stably expressed in H1975 cell lines by lentivirus-mediated over-expression, respectively. The EGFR over-expressed cells then underwent knockout, in which the EGFR targeting sgRNA was designed to only target the endogenous EGFR copies and preserve the exogenous EGFR copies. Followed by the knockout, the edited H1975 cells were seeded in 96 well plates at the concentration of […], cultured for about 2 weeks to allow single clones formation. The formed clones were screened by DNA sequencing and whole exon sequencing analysis for the desired edition. H1975-clone #8 were finally confirmed as homozygous L858R/C797S EGFR clones.
(§1) H1975-#8 and BaF3-L858R cells are treated with compounds diluted in 0.1% DMSO cell culture medium on day 2, incubate for 16 h, 37° C., 5% CO2. the final concentration of compounds in all assay is start with 10 uM, 5-fold dilution, total 8 doses were included.
(§2) After 16 h treatment, for H1975-#8 cells, add 100 ul HTRF 1× lysis buffer to each well; for BaF3-L858R cells, add 20 μl 4× lysis buffer to each well; seal the plate and incubate 1 hour at room temperature on a plate shaker; Once the cells are lysed, 16 μL of cell lysate are transferred to a PE 384-well HTRF detection plate; 4 μL of pre-mixed HTRF antibodies are added to each well; Cover the plate with a plate sealer, spin 1000 rpm for 1 min, Incubate overnight at room temperature; Read on BMG PheraStar with HTRF protocol (337 nm-665 nm-620 nm).
(§3) The inhibition (degradation) percentage of the compound was calculated by the following equation:
(§4) High control=Cell group with added DMSO and without compound, indicating microplate readings without EGFR degradation;
(§5) Dmax is the maximum percentage of inhibition (degradation).
(§6) The IC50(DC50) value of a compound can be obtained by fitting the following equation
(§7) Wherein, X and Y are known values, and IC50, Hillslope, Top and Bottom are the parameters obtained by fitting with software. Y is the inhibition percentage (calculated from the equation), X is the concentration of the compound; IC50 is the concentration of the compound when the 50% inhibition is reached. The smaller the IC50 value is, the stronger the inhibitory ability of the compound is. Vice versa, the higher the IC50 value is, the weaker the ability the inhibitory ability of the compound is; Hillslope represents the slope of the fitted curve, generally around 1*; Bottom represents the minimum value of the curve obtained by data fitting, which is generally 0%±20%; Top represents the maximum value of the curve obtained by data fitting, which is generally 100%±20%. The experimental data were fitted by calculating and analyzing with Dotmatics data analysis software.

[2] = biological target: T2, EGFR L858R (BaF3-L858R cells) (Homo sapiens, UniProt P00533, L858R); test: EGFR degradation in BaF3-L858R cells (HTRF assay); type: cell-based; settings: 16 h treatment; for DC50: IC50(DC50) of EGFR degradation; for Dmax: maximum percentage of inhibition (degradation)
T2 construct: host or cells: BaF3
Method: BaF3-L858R (abbv. L858R) cell were purchased from Kangyuan Bochuang Biotechnology (Beijing) Co., Ltd.
as §1, §2, §3, §4, §5, §6, §7

T2 sequence (P00533 25-1210 L858R): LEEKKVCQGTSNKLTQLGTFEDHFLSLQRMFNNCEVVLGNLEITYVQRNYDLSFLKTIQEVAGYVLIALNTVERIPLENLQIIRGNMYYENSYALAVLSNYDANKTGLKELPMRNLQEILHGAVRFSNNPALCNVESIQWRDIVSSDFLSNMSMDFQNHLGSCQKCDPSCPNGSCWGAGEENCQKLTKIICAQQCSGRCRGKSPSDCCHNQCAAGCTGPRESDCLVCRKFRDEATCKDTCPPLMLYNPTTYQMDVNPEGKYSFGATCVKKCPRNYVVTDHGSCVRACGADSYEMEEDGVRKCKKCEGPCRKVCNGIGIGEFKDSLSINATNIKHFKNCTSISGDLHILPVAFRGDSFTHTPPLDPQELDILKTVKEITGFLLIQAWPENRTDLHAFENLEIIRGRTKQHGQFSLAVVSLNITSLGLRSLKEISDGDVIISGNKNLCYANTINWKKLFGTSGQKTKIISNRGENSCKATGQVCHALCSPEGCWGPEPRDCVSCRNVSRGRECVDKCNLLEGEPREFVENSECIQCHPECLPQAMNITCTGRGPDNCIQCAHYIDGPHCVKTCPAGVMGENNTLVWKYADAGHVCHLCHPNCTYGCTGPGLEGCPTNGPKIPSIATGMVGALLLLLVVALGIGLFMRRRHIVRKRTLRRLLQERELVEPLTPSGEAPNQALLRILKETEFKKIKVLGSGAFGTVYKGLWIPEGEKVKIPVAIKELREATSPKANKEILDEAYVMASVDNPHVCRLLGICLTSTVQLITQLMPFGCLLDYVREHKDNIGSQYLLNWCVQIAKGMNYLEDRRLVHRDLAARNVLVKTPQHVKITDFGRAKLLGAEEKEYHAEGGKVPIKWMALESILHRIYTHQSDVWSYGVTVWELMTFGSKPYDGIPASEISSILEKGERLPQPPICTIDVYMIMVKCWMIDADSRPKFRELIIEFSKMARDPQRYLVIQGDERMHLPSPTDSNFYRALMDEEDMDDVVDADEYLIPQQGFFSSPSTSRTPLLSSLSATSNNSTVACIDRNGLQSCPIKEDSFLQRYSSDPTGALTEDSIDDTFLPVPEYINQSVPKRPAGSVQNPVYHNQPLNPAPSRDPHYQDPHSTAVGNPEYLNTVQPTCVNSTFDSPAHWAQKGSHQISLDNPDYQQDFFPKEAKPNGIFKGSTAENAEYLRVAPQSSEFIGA
T1 sequence (P00533 25-1210 C797S/L858R): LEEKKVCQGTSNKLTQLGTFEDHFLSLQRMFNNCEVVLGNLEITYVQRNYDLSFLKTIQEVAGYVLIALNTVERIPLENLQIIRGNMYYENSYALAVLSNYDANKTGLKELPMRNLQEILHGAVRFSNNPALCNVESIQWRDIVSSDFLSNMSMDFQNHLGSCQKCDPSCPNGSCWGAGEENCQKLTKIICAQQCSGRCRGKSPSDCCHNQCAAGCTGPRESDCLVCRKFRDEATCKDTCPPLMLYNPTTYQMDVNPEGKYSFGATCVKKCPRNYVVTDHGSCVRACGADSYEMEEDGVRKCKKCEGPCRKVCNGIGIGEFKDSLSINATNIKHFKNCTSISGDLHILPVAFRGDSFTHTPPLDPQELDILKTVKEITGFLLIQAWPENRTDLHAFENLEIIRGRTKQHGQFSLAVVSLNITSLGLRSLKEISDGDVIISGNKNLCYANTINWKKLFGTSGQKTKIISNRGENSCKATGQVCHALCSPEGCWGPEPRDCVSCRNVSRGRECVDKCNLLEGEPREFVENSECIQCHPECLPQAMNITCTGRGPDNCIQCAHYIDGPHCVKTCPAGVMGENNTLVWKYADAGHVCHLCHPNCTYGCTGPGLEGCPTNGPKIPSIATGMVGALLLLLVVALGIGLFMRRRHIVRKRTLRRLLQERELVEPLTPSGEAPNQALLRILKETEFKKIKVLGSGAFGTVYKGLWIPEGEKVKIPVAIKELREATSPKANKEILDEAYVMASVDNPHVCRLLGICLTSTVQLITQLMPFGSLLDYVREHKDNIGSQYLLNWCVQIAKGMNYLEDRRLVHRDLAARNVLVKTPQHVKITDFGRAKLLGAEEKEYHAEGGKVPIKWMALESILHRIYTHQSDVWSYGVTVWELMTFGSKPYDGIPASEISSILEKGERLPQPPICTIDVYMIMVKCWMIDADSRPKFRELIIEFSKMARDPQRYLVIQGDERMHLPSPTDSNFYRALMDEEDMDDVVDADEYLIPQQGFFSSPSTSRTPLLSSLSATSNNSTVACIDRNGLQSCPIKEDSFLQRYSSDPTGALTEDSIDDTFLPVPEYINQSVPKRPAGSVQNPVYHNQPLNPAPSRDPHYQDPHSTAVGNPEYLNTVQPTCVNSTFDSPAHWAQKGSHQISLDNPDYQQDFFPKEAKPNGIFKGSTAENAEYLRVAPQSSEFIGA

Row | Structure (SMILES) | DC50 [1] | Dmax [1] | DC50 [2] | Dmax [2]
1 | CCc1nc(C2CCC(=O)NC2=O)ccc1N1CCC(N2CCN(c3ccc4c(c3)N3C[C@@H]5C[C@@]5(C)CCOc5c(cnn5C)-c5cc(cc(C)n5)C(=O)/N=C/3N4)CC2)CC1 (some centres unmarked) [Example 25, 3-(6-ethyl-5-(4-(4-((7^1R,7^2S,E)-1^1,2^6,7^2-trimethyl-3-oxo-5^2,5^3-dihydro-1^1H,5^1H-10-oxa-4-aza-5 (2,1)-benzo[d]imidazola-2 (2,4)-pyridina-1 (4,5)-pyrazola-7 (1,2)-cyclopropanacyclodecaphane-5^6-yl)piperazin-1-yl)piperidin-1-yl)pyridin-2-yl)piperidine-2,6-dione] | 1.65 nM | 57% | 2.42 nM | 91.5%
2 | Cc1cc2cc(n1)-c1cnn(C)c1OCC[C@H]1C[C@@H]1CN1/C(=N/C2=O)Nc2ccc(N3CCN(CCc4cc(F)c([C@H]5CCC(=O)NC5=O)c(F)c4)C(C4CCOC4)C3)cc21 (stereo partly drawn) [Example 35, (3R)-3-(4-(2-(4-((7^1S,7^2R,E)-1^1,2^6-dimethyl-3-oxo-5^2,5^3-dihydro-1^1H,5^1H-10-oxa-4-aza-5 (2,1)-benzo[d]imidazola-2 (2,4)-pyridina-1 (4,5)-pyrazola-7 (1,2)-cyclopropanacyclodecaphane-5^6-yl)-2-(tetrahydrofuran-3-yl)piperazin-1-yl)ethyl)-2,6-difluorophenyl)piperidine-2,6-dione] | 8.44 nM | 41.4% | 22 nM | 59%
3 | Cc1cc2cc(n1)-c1cnn(C)c1OCC[C@]1(C)C[C@H]1CN1/C(=N/C2=O)Nc2ccc(N3CCN([C@@H]4CCN(c5cnc(C6CCC(=O)NC6=O)cc5C)C[C@@H]4F)CC3)cc21 (stereo partly drawn) [Example 59, 3-(5-((3S,4R)-3-fluoro-4-(4-((7^1R,7^2S,E)-1^1,2^6,7^2-trimethyl-3-oxo-5^2,5^3-dihydro-1^1H,5^1H-10-oxa-4-aza-5 (2,1)-benzo[d]imidazola-2 (2,4)-pyridina-1 (4,5)-pyrazola-7 (1,2)-cyclopropanacyclodecaphane-5^6-yl)piperazin-1-yl)piperidin-1-yl)-4-methylpyridin-2-yl)piperidine-2,6-dione] | 0.635 nM | 72.7% | 3.54 nM | 95.5%
4 | Cc1cc2cc(n1)-c1cnn(C)c1OCC[C@H]1C[C@@H]1CN1/C(=N/C2=O)Nc2ccc(N3CCN(C4CN(C5CCN(c6ccc(C7CCC(=O)NC7=O)nc6C)CC5)C4)C[C@@H]3C)cc21 (stereo partly drawn) [Example 36, 3-(5-(4-(3-((S)-4-((7^1S,7^2R,E)-1^1,2^6-dimethyl-3-oxo-5^2,5^3-dihydro-1^1H,5^1H-10-oxa-4-aza-5 (2,1)-benzo[d]imidazola-2 (2,4)-pyridina-1 (4,5)-pyrazola-7 (1,2)-cyclopropanacyclodecaphane-5^6-yl)-3-methylpiperazin-1-yl)azetidin-1-yl)piperidin-1-yl)-6-methylpyridin-2-yl)piperidine-2,6-dione] | 2.61 nM | 41.7% | 13.4 nM | 68.5%
5 | Cc1cc2cc(n1)-c1cnn(C)c1OCC[C@H]1C[C@@H]1CN1/C(=N/C2=O)Nc2ccc(N3CCN([C@H]4CCN(c5cc(F)c(C6CCC(=O)NC6=O)nc5C)C[C@H]4F)CC3)cc21 (stereo partly drawn) [Example 30, 3-(5-((3R,4S)-4-(4-((7^1S,7^2R,E)-1^1,2^6-dimethyl-3-oxo-5^2,5^3-dihydro-1^1H,5^1H-10-oxa-4-aza-5 (2,1)-benzo[d]imidazola-2 (2,4)-pyridina-1 (4,5)-pyrazola-7 (1,2)-cyclopropanacyclodecaphane-5^6-yl)piperazin-1-yl)-3-fluoropiperidin-1-yl)-3-fluoro-6-methylpyridin-2-yl)piperidine-2,6-dione] | 9.57 nM | 57.5% | 21 nM | 89.3%
6 | Cc1cc2cc(n1)-c1cnn(C)c1OCC[C@H]1C[C@@H]1CN1/C(=N/C2=O)Nc2ccc(N3CCN([C@@H]4CCN(c5cc(F)c(C6CCC(=O)NC6=O)nc5C)C[C@@H]4F)CC3)cc21 (stereo partly drawn) [Example 34, 3-(5-((3S,4R)-4-(4-((7^1S,7^2R,E)-1^1,2^6-dimethyl-3-oxo-5^2,5^3-dihydro-1^1H,5^1H-10-oxa-4-aza-5 (2,1)-benzo[d]imidazola-2 (2,4)-pyridina-1 (4,5)-pyrazola-7 (1,2)-cyclopropanacyclodecaphane-5^6-yl)piperazin-1-yl)-3-fluoropiperidin-1-yl)-3-fluoro-6-methylpyridin-2-yl)piperidine-2,6-dione] | 11.9 nM | 57% | 7.47 nM | 83.8%
7 | Cc1cc2cc(n1)-c1cnn(C)c1OCC[C@]1(C)C[C@H]1CN1/C(=N/C2=O)Nc2ccc(N3CCN(C4CCN(c5cc(F)c([C@H]6CCC(=O)NC6=O)c(F)c5)CC4)CC3)cc21 [Example 17, (R)-3-(2,6-difluoro-4-(4-(4-((7^1R,7^2S,E)-1^1,2^6,7^2-trimethyl-3-oxo-5^2,5^3-dihydro-1^1H,5^1H-10-oxa-4-aza-5 (2,1)-benzo[d]imidazola-2 (2,4)-pyridina-1 (4,5)-pyrazola-7 (1,2)-cyclopropanacyclodecaphane-5^6-yl)piperazin-1-yl)piperidin-1-yl)phenyl)piperidine-2,6-dione] | 1.6 nM | 68.7% | 2.32 nM | 84.1%
8 | Cc1cc2cc(n1)-c1cnn(C)c1OCC[C@H]1C[C@@H]1CN1/C(=N/C2=O)Nc2ccc(N3CCN(C4CCN(c5ccc(C6CCC(=O)NC6=O)nc5C)CC4)C[C@@H]3C)cc21 (stereo partly drawn) [Example 3, 3-(5-(4-((S)-4-((7^1S,7^2R,E)-1^1,2^6-dimethyl-3-oxo-5^2,5^3-dihydro-1^1H,5^1H-10-oxa-4-aza-5 (2,1)-benzo[d]imidazola-2 (2,4)-pyridina-1 (4,5)-pyrazola-7 (1,2)-cyclopropanacyclodecaphane-5-yl)-3-methylpiperazin-1-yl)piperidin-1-yl)-6-methylpyridin-2-yl)piperidine-2,6-dione] | 3.1 nM | 65.2% | 11.6 nM | 85.5%
9 | Cc1cc2cc(n1)-c1cnn(C)c1OCC[C@H]1C[C@@H]1CN1/C(=N/C2=O)Nc2ccc(N3CCN([C@@H]4CCN(c5cnc(C6CCC(=O)NC6=O)cc5C)C[C@@H]4F)CC3)cc21 (stereo partly drawn) [Example 12, 3-(5-((3S,4R)-4-(4-((7^1S,7^2R,E)-1^1,2^6-dimethyl-3-oxo-5^2,5^3-dihydro-1^1H,5^1H-10-oxa-4-aza-5 (2,1)-benzo[d]imidazola-2 (2,4)-pyridina-1 (4,5)-pyrazola-7 (1,2)-cyclopropanacyclodecaphane-5^6-yl)piperazin-1-yl)-3-fluoropiperidin-1-yl)-4-methylpyridin-2-yl)piperidine-2,6-dione] | 16 nM | 54.4% | 18.4 nM | 73.6%
10 | Cc1cc2cc(n1)-c1cnn(C)c1OCC[C@]1(C)C[C@H]1CN1/C(=N/C2=O)Nc2ccc(N3CCN([C@@H]4CCN(c5ccc(C6CCC(=O)NC6=O)nc5C)C[C@@H]4F)CC3)cc21 (stereo partly drawn) [Example 49, 3-(5-((3S,4R)-3-fluoro-4-(4-((7^1R,7^2S,E)-1^1,2^6,7^2-trimethyl-3-oxo-5^2,5^3-dihydro-1^1H,5^1H-10-oxa-4-aza-5 (2,1)-benzo[d]imidazola-2 (2,4)-pyridina-1 (4,5)-pyrazola-7 (1,2)-cyclopropanacyclodecaphane-5^6-yl)piperazin-1-yl)piperidin-1-yl)-6-methylpyridin-2-yl)piperidine-2,6-dione] | 0.942 nM | 86.9% | 0.418 nM | 86.7%
11 | CCc1nc(C2CCC(=O)NC2=O)ccc1N1CCC(N2CCN(c3ccc4c(c3)N3C[C@H]5C[C@@H]5CCOc5c(cnn5C)-c5cc(cc(C)n5)C(=O)/N=C/3N4)CC2)CC1 (some centres unmarked) [Example 14, 3-(5-(4-(4-4((7^1S,7^2R,E)-1^1,2^6-dimethyl-3-oxo-5^2,5^3-dihydro-1^1H,5^1H-10-oxa-4-aza-5 (2,1)-benzo[d]imidazola-2 (2,4)-pyridina-1 (4,5)-pyrazola-7 (1,2)-cyclopropanacyclodecaphane-5^6-yl)piperazin-1-yl)piperidin-1-yl)-6-ethylpyridin-2-yl)piperidine-2,6-dione] | 5.8 nM | 51.4% | 9.37 nM | 84.4%
